Assay results published in publication PMC4143171 (Journal of nuclear medicine : official publication, Society …, 2010).
Bridges are numbered along the chain shown (N, C = ends). Where no end group is shown, it is not given here.

Target: integrin receptors expressed on surface of U87MG glioblastoma cells (Homo sapiens, UniProt P05106+P06756)
Experiment: U87MG competition binding assay

Question: How did the IC50 turn out when “ECESGPCCRNCKFLKEGTICKRARGDDMDDYCNGKTCDCPRNPHKGPAT (disulfide 2-11, 7-32, 8-37, 20-39 (inferred)) [echistatin]” was run?
Answer: 3.3 ± 0.6 nM
